Source: US10738101B2, “Method for selecting odor-controlling substance” (Kao Corporation, priority 2015, dated 2020)

Assays:
OR9Q2 = biological target: T1, OR9Q2 (Homo sapiens, UniProt Q8NGE9); experiment: Luciferase reporter gene assay, OR9Q2-expressing HEK293 cells; assay type: cell-based; conditions: FIG. 2, 5B, 5C
T1 construct: expressed in transfected cells; host or cells: HEK293
T1 sequence (Q8NGE9 1-314): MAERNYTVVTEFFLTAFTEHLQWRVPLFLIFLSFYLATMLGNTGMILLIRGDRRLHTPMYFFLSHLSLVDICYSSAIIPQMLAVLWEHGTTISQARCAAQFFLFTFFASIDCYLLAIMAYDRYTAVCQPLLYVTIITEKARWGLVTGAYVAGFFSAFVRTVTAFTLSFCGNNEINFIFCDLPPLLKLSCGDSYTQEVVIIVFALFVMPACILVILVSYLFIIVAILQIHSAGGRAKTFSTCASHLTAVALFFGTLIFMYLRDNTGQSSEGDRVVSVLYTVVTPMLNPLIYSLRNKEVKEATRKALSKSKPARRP
Source text: On the basis of sequence information registered in GenBank, genes respectively encoding 370 human olfactory receptors shown in Tables 1-1 and 1-2 and genes respectively encoding the human olfactory receptors OR5AN1, OR10G4 and OR9Q2 (respectively set forth in SEQ ID NOS: 1, 3 and 5) were cloned. Each of the genes was cloned by the PCR using human genomic DNA person (G1521: Promega) as a template. Each gene amplified by the PCR was incorporated into a pENTR vector (Invitrogen) in accordance with the instruction, and was recombined to NotI and AscI sites produced downstream from a Flag-Rho tag sequence on a pME18S vector by using NotI and AscI sites present on the pENTR vector.
In 1) of Example 1, HEK293 cells on which the 370 human olfactory receptors were respectively expressed were produced. A reaction solution having a composition shown in Table 2 was prepared and allowed to stand still in a clean bench for 15 minutes, and the resultant was added by 4.4 μL per well in a 384-well plate (BioCoat). Subsequently, the HEK293 cells (20×10^4 cells/cm^2) were seeded by 40 μL per well, and the resultant was cultured for 24 hours in an incubator kept at 37° C. and 5% CO2.
In 2) of Example 1 and Examples 2 and 3, HEK293 cells in which the human olfactory receptor OR5AN1, OR10G4, OR9Q2 or OR1A1 was expressed were produced. A reaction solution having a composition shown in Table 3 was prepared and allowed to stand still in a clean bench for 15 minutes, and the resultant was added by 10 μL per well in a 96-well plate (BioCoat). Subsequently, the HEK293 cells (3×10^5 cells/cm^2) were seeded by 90 μL per well, and the resultant was cultured for 24 hours in an incubator kept at 37° C. and 5% CO2. Cells obtained under conditions for not expressing the olfactory receptor (Mock) were also prepared to be used as a control, and were used similarly in an experiment.
The olfactory receptor expressed on the HEK293 cells increases the intracellular cAMP amount by activating adenylate cyclase in conjugation with intracellular Gαs. In the measurement of odor response in this study, luciferase reporter gene assay for monitoring the increase of the intracellular cAMP amount as a luminescence value derived from a firefly luciferase gene (fluc2P-CRE-hygro) was employed. Besides, a fused Renilla luciferase (hRluc-CMV) gene was simultaneously transferred downstream of the CMV promoter, so as to be used as an internal standard for correcting the gene transfer efficiency or an error in the number of cells. For measuring the activity of the luciferase, Dual-Glo(™) Luciferase Assay System (Promega) was used, and the measurement was performed in accordance with the operation instruction of the product. Under each of various stimulation conditions, a value fLuc/hRluc obtained by dividing a firefly luciferase-derived luminescence value by a Renilla luciferase-derived luminescence value was calculated. A value obtained by dividing a value fLuc/hRluc induced by stimulation with an odorous substance by a value fLuc/hRluc of a cell not stimulated with the odorous substance was obtained as fold increase, which was used as an index of the response intensity. A dose-response curve was analyzed using Graph Pad Prism.
The medium was removed from each of the cultures of the olfactory receptor expressing cells produced according to Reference Example 1, and an odorous substance (muscone, guaiacol or p-cresol) was added thereto. A DMEM medium (Nacalai) containing muscone or guaiacol was added to a 384-well plate containing the culture by 30 μL per well (to a final concentration of muscone of 100 μM and of guaiacol of 1 mM). Alternatively, a CD293 medium (Invitrogen) containing p-cresol was added to a 96-well plate containing the culture by 75 μL per well (to a final concentration of 1 mM). […]

ethyl vanillin odor = experiment: Sensory test of cross-adaptation, target odor ethyl vanillin; assay type: in vivo, human; conditions: panelists
odor of guaiacol = experiment: Sensory test of cross-adaptation, target odor guaiacol; assay type: in vivo, human; conditions: panelists, test sample smelled before target sample, FIG. 6B
Protocol: (§1) The cross-adaptation effect induced by the odorous substance evaluated in Example 2 was estimated by a sensory test. A glass bottle (No. 11, manufactured by Hakuyo Glass Co., Ltd., capacity: 110 mL) was charged with a target odorous substance to be used as a target sample. As the target odorous substance, muscone, guaiacol or p-cresol was used. As the muscone, a cotton ball soaked with 1 mg of muscone was used. As the guaiacol and p-cresol, 1 mL of a mineral oil (Sigma-Aldrich) solution in a concentration of 10 ppm was used. In a similar manner, a glass bottle was charged with a test substance to be used as a test sample. As the test sample, 5 mg of an ethyl vanillin powder, or 1 mL of a mineral oil (Sigma-Aldrich) solution of p-cresyl acetate, p-cresyl isobutyrate or p-methyl quinoline prepared to a concentration of 1,000 ppm was used.
The sensory test was performed by a single blind method by five to eight panelists. The target sample was first presented to each panelist, who was caused to replay on the odor intensity. Next, the test sample was presented for 2 minutes or until the odor could not be perceived. Thereafter, the target sample was presented again, and the panelist was caused to replay on the odor intensity. This series of operations was defined as one set, and the sensory test was carried out with four sets per day per panelist set as the upper limit. […]

odor of p-cresol = experiment: Sensory test of cross-adaptation, target odor p-cresol; assay type: in vivo, human; conditions: panelists, test sample smelled before target sample, FIG. 6C
Protocol: as §1
The sensory test was performed by a single blind method by five to eight panelists. The target sample was first presented to each panelist, who was caused to replay on the odor intensity. Next, the test sample was presented for 2 minutes or until the odor could not be perceived. Thereafter, the target sample was presented again, and the panelist was caused to replay on the odor intensity. This series of operations was defined as one set, and the sensory test was carried out with four sets per day per panelist set as the upper limit. A recess of at least 10 minutes or more was provided between the sets.
The panelist was caused to plot the estimated intensity of the target odor on a straight line of 9.5 cm with both ends respectively provided with criteria “No odor” and “Strong odor”. A distance (A) between the position of the target odor intensity plotted in the initial estimate and the end of “No odor”, and a distance (B) between the position of the target odor intensity plotted in the second estimate and the end of “No odor” were obtained, so as to calculate percentage odor intensity of the initial estimate [B/A*100−100]. As this value is smaller, the intensity of the target odor perceived in the second estimate is suppressed stronger as compared with that in the initial estimate, namely, stronger cross-adaptation is induced. If this value is −100%, it means that the target odor was not perceived at all in the second estimate.

## C[C@@H]1CCCCCCCCCCCCC(=O)C1 [muscone, (R)-3-methyl-1-cyclopentadecanone]
OR9Q2
  responsiveness of OR9Q2 (fold increase): do not have responsiveness
Ethyl vanillin odor
  cross-adaptation of ethyl vanillin odor induced by test substance: not induced
Odor of guaiacol
  cross-adaptation of guaiacol odor induced by test substance: not induced
Odor of p-cresol
  cross-adaptation of p-cresol odor induced by test substance: did not induce the cross-adaptation
